US6790825B2, “Method of using secretin and compositions made therefrom for the treatment of autism and other neurological, behavioral and immunological disorders” (Repligen Corporation, priority 1997, dated 2004)
Entries after “also recorded” stand apart in the source; their conditions may differ. No end group written: not given here.

Key:
[1] = tested on: patient, a child with symptoms of autism; experiment: Intravenous secretin infusion in a child with symptoms of autism (Example 1): behavioral and biomedical changes; type: in vivo, human
Description: The present invention will be better understood from the following examples which are given by way of illustration and not by way of limitation. The patient, the same in both examples, is a child with symptoms of autism.
The patient in the present examples developed normally […], with the exception of gastrointestinal problems (i.e., chronic diarrhea and constipation) which began at about six months. At about thirteen months, when whole milk was introduced into their diet, the patient began having reoccurring ear infections. At about fourteen months, the patient appeared to lose the ability to process language, first receptively (at about 14 months) then expressively (at about 16 months). The patient also experienced episodes of “shivers” that appeared to be intermittent seizures.
After consulting with numerous neurologists, pediatricians, child development specialists, audiologists, endocrinologists, allergists, and other medical professionals, no consistent diagnosis had been reached. […] The term autism is used herein for reference purposes only, and this invention is intended to apply to any number of pervasive developmental disorders as well as neurological and immunological disorders.
(§1) When the patient was […], the secretin was administered by way of an infusion as part of an upper gastrointestinal endoscopy. The secretin was used in this diagnostic procedure at the request of the patient's parents, one of which is an inventor of the present invention. The secretin used in this procedure is known as Secretin-Ferring available from Ferring Laboratories, Inc., Suffern, N.Y. (See Appendix A). The secretin was dissolved in a […] solution of sodium chloride and administered in a dosage of 2 clinical units (CU) per kilogram (kg) body weight by intravenous injection over one minute. (I.E. 30 IU IV for approximately 15 kilograms of body weight.)
(§2) The diagnostic tests performed on the patient during this procedure also indicated gastric inflammation. […] The following Table I summarizes the improvements observed in the patient within 3 weeks after the infusion of secretin.
Biomedical changes were also measured in the patient.
At the request of the patient's parents, a second infusion of secretin was performed about 9 months after the first infusion, and a third infusion of secretin was performed about three months after the second infusion.

pancreas = experiment: Pancreatic juice release after secretin infusion during upper gastrointestinal endoscopy (Example 1); type: in vivo, human; details: immediately after 2 CU/kg i.v. over one minute; usual rate 1-2 ml/min
Description: as §1, §2

[2] = tested on: patient, a child with symptoms of autism; experiment: Daily transdermal secretin with DMSO in the same patient (Example 2); type: in vivo, human
Description: At the time of this treatment, the patient was […]. Secretin was administered transdermally using pharmaceutical grade dimethyl sulfoxide (DMSO) (generally 99.9% pure) available from Clinic Service Co., Box 2512, Hemet Calif. 92543. The secretin (Secretin-Ferring) was administered daily in a dosage of about 75 CU over a five day period (i.e., about 15 CU daily). For each treatment, about 4 drops of DMSO were placed onto the skin of the patient, about 15 CU of the crystalline secretin was placed onto the DMSO, and the composition was rubbed into the skin.

abnormal opioid peptides = details: autistic children that responded to casein free and gluten free diet; measured before and after infusion; cited from earlier work

## secretin (HSDGTFTSELSRLRDSARLQRLLQGLV-NH2; ends and bridges not checked; UniProt P63298 33-59, looked up) [polypeptide hormone secreted by the mucosa of the duodenum and upper jejunum; used as Secretin-Ferring from Ferring Laboratories]
[1]; after the infusion
  SPECT scan: perfusion of the right posterior parietal and right temporal lobes (blood flow in the brain): improved; also recorded: increased blood flow in the brain
[1]; after the secretin administration in Example 1
  Measles, mumps and rubella antibodies: reduction of measles, mumps and rubella antibodies
[1]; after the treatment, dropped from 5.8 before
  Rubella titers: 2.3
[1]; at about 5 weeks after the first infusion, behavioral improvements continued
  Rate of the patient's progress: appeared to decrease
[1]; before infusion: Abnormal bowel movements, 2 CU/kg i.v.
  Progress within 3 weeks after the secretin infusion: bowel movements: Normal bowel movements.
[1]; before infusion: Consistent sleeping problems, up numerous times each night, 2 CU/kg i.v.
  Progress within 3 weeks after the secretin infusion: sleeping problems: Has slept through almost every night
[1]; before infusion: Diapers only, 2 CU/kg i.v.
  Progress within 3 weeks after the secretin infusion: toilet training: Completely potty trained.
[1]; before infusion: Did not imitate commands, 2 CU/kg i.v.
  Progress within 3 weeks after the secretin infusion: imitation of commands: Will imitate almost any multi-step
[1]; before infusion: Infrequent (1-2 times/week) spinning episodes, 2 CU/kg i.v.
  Progress within 3 weeks after the secretin infusion: spinning episodes: No spinning episodes.
[1]; before infusion: Limited Diet Preferences, 2 CU/kg i.v.
  Progress within 3 weeks after the secretin infusion: diet preferences: No Change
[1]; before infusion: Minimal eye contact, 2 CU/kg i.v.
  Progress within 3 weeks after the secretin infusion: eye contact: Eye contact 75% of the time.
[1]; before infusion: No apparent connections made, 2 CU/kg i.v.
  Progress within 3 weeks after the secretin infusion: connections between language and objects: Many connections made between
[1]; before infusion: No flash cards, 2 CU/kg i.v.
  Progress within 3 weeks after the secretin infusion: flash cards: 40-50 flash cards.
[1]; before infusion: No interest in drawing, 2 CU/kg i.v.
  Progress within 3 weeks after the secretin infusion: interest in drawing: Wants to draw constantly. Will draw
[1]; before infusion: No response, 2 CU/kg i.v.
  Progress within 3 weeks after the secretin infusion: response to request for gestures: Responds to all kinds of things
[1]; before infusion: No sentences, 2 CU/kg i.v.
  Progress within 3 weeks after the secretin infusion: sentences: Short sentences - such as; “I love you”,
[1]; before infusion: Two words, 2 CU/kg i.v.
  Progress within 3 weeks after the secretin infusion: words spoken: 100's of words - will repeat some
[1]; before infusion: Watch Videos, 2 CU/kg i.v.
  Progress within 3 weeks after the secretin infusion: interaction with videos: Now, gets “involved” interactively
[1]; blood tests after the treatment
  Serotonin levels in blood: rise in serotonin levels; also recorded: increase in serotonin levels
[1]; no change, before infusion: excessive, approximately 50 cups per day, 2 CU/kg i.v.
  Progress within 3 weeks after the secretin infusion: water consumption: change approximately 50 cups per cups per day
[1]; second about 9 months after the first, third about three months after the second
  Results of second and third infusions: achieved the same results
[1]; within days after administration, no change of diet
  Chronic abnormal bowel movements: became normal
pancreas
  Amount of pancreatic juice released: approximately 10 ml/min
[2]; about 15 CU daily with about 4 drops DMSO rubbed into the skin, compared with infusion
  Improvements in the patient on daily transdermal administration: even more dramatic and significant improvements
[2]; daily transdermal dose stopped
  Effect of stopping the daily dose: autistic behavioral symptoms return
[2]; within about 6 months, about 15 CU daily transdermally with DMSO
  Language progress: progressed to spontaneous and conversational language
Abnormal opioid peptides
  Abnormal opioid peptides after the secretin infusion: disappeared
